Assay [1] deals with T1, Glucagon-like peptide 1 receptor (Homo sapiens, UniProt P43220). Briefly: Displacement of [125I]-GLP1 from human GLP1 receptor expressed in BHK cells after 2 hrs in absence of human serum albumin. The assay is classed as cell-based. Background: In a radioligand displacement assay an active substance lowers the binding of a labelled ligand.
For assay [2], the target named is T1, Glucagon-like peptide 1 receptor. Briefly: Displacement of [125I]-GLP1 from human GLP1 receptor expressed in BHK cells after 2 hrs in presence of 2% human serum albumin. Format: cell-based.
The target is the same in assay [3]. Briefly: Agonist activity at human GLP1 receptor expressed in BHK cells after 3 hrs by CRE firefly luciferase reporter gene assay in absence of human serum albumin. Format: functional, cell-based. For orientation: A reporter such as luciferase makes a cellular process visible.

T1 sequence (P43220 whole entry): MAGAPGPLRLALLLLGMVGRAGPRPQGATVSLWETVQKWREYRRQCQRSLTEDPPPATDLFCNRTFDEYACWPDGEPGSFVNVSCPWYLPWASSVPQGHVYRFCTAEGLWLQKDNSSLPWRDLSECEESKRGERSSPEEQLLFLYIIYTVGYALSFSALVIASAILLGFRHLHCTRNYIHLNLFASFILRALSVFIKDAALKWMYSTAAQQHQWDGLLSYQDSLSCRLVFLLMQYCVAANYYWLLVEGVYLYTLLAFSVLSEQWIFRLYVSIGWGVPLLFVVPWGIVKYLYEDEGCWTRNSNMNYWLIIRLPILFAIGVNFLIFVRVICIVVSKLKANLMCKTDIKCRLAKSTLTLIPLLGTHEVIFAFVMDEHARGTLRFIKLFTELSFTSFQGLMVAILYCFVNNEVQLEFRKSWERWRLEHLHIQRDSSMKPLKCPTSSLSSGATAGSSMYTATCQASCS

On to `CCCCCCCCCCCCCCCCCC(=O)N[C@@H](CCC(=O)NCCOCCOCC(=O)NCCOCCOCC(=O)NCCCC[C@H](NC(=O)[C@H](C)NC(=O)[C@H](C)NC(=O)[C@H](CCC(N)=O)NC(=O)CNC(=O)[C@H](CCC(=O)O)NC(=O)[C@H](CC(C)C)NC(=O)[C@H](Cc1ccc(O)cc1)NC(=O)[C@H](CO)NC(=O)[C@H](CO)NC(=O)[C@@H](NC(=O)[C@H](CC(=O)O)NC(=O)[C@H](CO)NC(=O)[C@@H](NC(=O)[C@H](Cc1ccccc1)NC(=O)[C@@H](NC(=O)CNC(=O)[C@H](CCC(=O)O)NC(=O)C(C)(C)NC(=O)[C@@H](N)Cc1c[nH]cn1)[C@@H](C)O)[C@@H](C)O)C(C)C)C(=O)N[C@@H](CCC(=O)O)C(=O)N[C@@H](Cc1ccccc1)C(=O)N[C@H](C(=O)N[C@@H](C)C(=O)N[C@@H](Cc1c[nH]c2ccccc12)C(=O)N[C@@H](CC(C)C)C(=O)N[C@H](C(=O)N[C@@H](CCCNC(=N)N)C(=O)NCC(=O)N[C@@H](CCCNC(=N)N)C(=O)NCC(=O)O)C(C)C)[C@@H](C)CC)C(=O)O`, for which the IC50 turned out to be 0.04 nM in assay [1] and 1.99 nM in assay [2]. For the same molecule, in assay [3], the EC50 is 0.0032 nM.

Turning to `CC[C@H](C)[C@H](NC(=O)[C@H](Cc1ccccc1)NC(=O)[C@H](CCC(=O)O)NC(=O)[C@H](CCCCNC(=O)COCCOCCNC(=O)COCCOCCNC(=O)CC[C@H](NC(=O)CCCCCCCCCCCCCCC(=O)O)C(=O)O)NC(=O)[C@H](C)NC(=O)[C@H](C)NC(=O)[C@H](CCC(N)=O)NC(=O)CNC(=O)[C@H](CCC(=O)O)NC(=O)[C@H](CC(C)C)NC(=O)[C@H](Cc1ccc(O)cc1)NC(=O)[C@H](CO)NC(=O)[C@H](CO)NC(=O)[C@@H](NC(=O)[C@H](CC(=O)O)NC(=O)[C@H](CO)NC(=O)[C@@H](NC(=O)[C@H](Cc1ccccc1)NC(=O)[C@@H](NC(=O)CNC(=O)[C@H](CCC(=O)O)NC(=O)C(C)(C)NC(=O)[C@@H](N)Cc1c[nH]cn1)[C@@H](C)O)[C@@H](C)O)C(C)C)C(=O)N[C@@H](C)C(=O)N[C@@H](Cc1c[nH]c2ccccc12)C(=O)N[C@@H](CC(C)C)C(=O)N[C@H](C(=O)N[C@@H](CCCNC(=N)N)C(=O)NCC(=O)N[C@@H](CCCNC(=N)N)C(=O)NCC(=O)O)C(C)C`, the IC50 in assay [1] worked out at 0.94 nM; in assay [2], 20.5 nM. Also, in assay [3], the EC50 was found to be 0.0086 nM.

Consider `CC[C@H](C)[C@H](NC(=O)[C@H](Cc1ccccc1)NC(=O)[C@H](CCC(=O)O)NC(=O)[C@H](CCCNC(=N)N)NC(=O)[C@H](C)NC(=O)[C@H](C)NC(=O)[C@H](CCC(N)=O)NC(=O)CNC(=O)[C@H](CCC(=O)O)NC(=O)[C@H](CC(C)C)NC(=O)[C@H](Cc1ccc(O)cc1)NC(=O)[C@H](CO)NC(=O)[C@H](CO)NC(=O)[C@@H](NC(=O)[C@H](CC(=O)O)NC(=O)[C@H](CO)NC(=O)[C@@H](NC(=O)[C@H](Cc1ccccc1)NC(=O)[C@@H](NC(=O)CNC(=O)[C@H](CCC(=O)O)NC(=O)C(C)(C)NC(=O)[C@@H](N)Cc1c[nH]cn1)[C@@H](C)O)[C@@H](C)O)C(C)C)C(=O)N[C@@H](C)C(=O)N[C@@H](Cc1c[nH]c2ccccc12)C(=O)N[C@@H](CC(C)C)C(=O)N[C@H](C(=O)N[C@@H](CCCNC(=N)N)C(=O)NCC(=O)N[C@@H](CCCNC(=N)N)C(=O)NCC(=O)N[C@@H](CCCCNC(=O)CCCCCCCCCCCCCCCCC(=O)O)C(=O)O)C(C)C`, for which the IC50 was determined as 0.31 nM in assay [1] and 7.55 nM in assay [2]. The EC50 in assay [3] was 0.0873 nM.

As for `CC[C@H](C)[C@H](NC(=O)[C@H](Cc1ccccc1)NC(=O)[C@H](CCC(=O)O)NC(=O)[C@H](CCCCN)NC(=O)[C@H](C)NC(=O)[C@H](C)NC(=O)[C@H](CCC(N)=O)NC(=O)CNC(=O)[C@H](CCC(=O)O)NC(=O)[C@H](CC(C)C)NC(=O)[C@H](Cc1ccc(O)cc1)NC(=O)[C@H](CO)NC(=O)[C@H](CO)NC(=O)[C@@H](NC(=O)[C@H](CC(=O)O)NC(=O)[C@H](CO)NC(=O)[C@@H](NC(=O)[C@H](Cc1ccccc1)NC(=O)[C@@H](NC(=O)CNC(=O)[C@H](CCC(=O)O)NC(=O)C(C)(C)NC(=O)[C@@H](N)Cc1c[nH]cn1)[C@@H](C)O)[C@@H](C)O)C(C)C)C(=O)N[C@@H](C)C(=O)N[C@@H](Cc1c[nH]c2ccccc12)C(=O)N[C@@H](CC(C)C)C(=O)N[C@H](C(=O)N[C@@H](CCCNC(=N)N)C(=O)NCC(=O)N[C@@H](CCCNC(=N)N)C(=O)NCC(=O)N[C@@H](CCCCNC(=O)COCCOCCNC(=O)COCCOCCNC(=O)CCCCCCCCCCCCCCCCC(=O)O)C(=O)O)C(C)C`, the IC50 in assay [1] is 0.27 nM; in assay [2], 6.73 nM. Moreover, the EC50 in assay [3] came to 0.0675 nM.

Take `CC[C@H](C)[C@H](NC(=O)[C@H](Cc1ccccc1)NC(=O)[C@H](CCC(=O)O)NC(=O)[C@H](CCCCNC(=O)CCCCCCCCCCCCCCCCC(=O)O)NC(=O)[C@H](C)NC(=O)[C@H](C)NC(=O)[C@H](CCC(N)=O)NC(=O)CNC(=O)[C@H](CCC(=O)O)NC(=O)[C@H](CC(C)C)NC(=O)[C@H](Cc1ccc(O)cc1)NC(=O)[C@H](CO)NC(=O)[C@H](CO)NC(=O)[C@@H](NC(=O)[C@H](CC(=O)O)NC(=O)[C@H](CO)NC(=O)[C@@H](NC(=O)[C@H](Cc1ccccc1)NC(=O)[C@@H](NC(=O)CNC(=O)[C@H](CCC(=O)O)NC(=O)C(C)(C)NC(=O)[C@@H](N)Cc1c[nH]cn1)[C@@H](C)O)[C@@H](C)O)C(C)C)C(=O)N[C@@H](C)C(=O)N[C@@H](Cc1c[nH]c2ccccc12)C(=O)N[C@@H](CC(C)C)C(=O)N[C@H](C(=O)N[C@@H](CCCNC(=N)N)C(=O)NCC(=O)N[C@@H](CCCNC(=N)N)C(=O)NCC(=O)O)C(C)C`: the figures for the IC50 in assay [1] and in assay [2] were 1.86 nM and 27 nM, respectively. In assay [3], this molecule gave an EC50 of 0.269 nM.

For `CC[C@H](C)[C@H](NC(=O)[C@H](Cc1ccccc1)NC(=O)[C@H](CCC(=O)O)NC(=O)[C@H](CCCCNC(=O)COCCOCCNC(=O)COCCOCCNC(=O)CCCCCCCCCCCCCCC(=O)O)NC(=O)[C@H](C)NC(=O)[C@H](C)NC(=O)[C@H](CCC(N)=O)NC(=O)CNC(=O)[C@H](CCC(=O)O)NC(=O)[C@H](CC(C)C)NC(=O)[C@H](Cc1ccc(O)cc1)NC(=O)[C@H](CO)NC(=O)[C@H](CO)NC(=O)[C@@H](NC(=O)[C@H](CC(=O)O)NC(=O)[C@H](CO)NC(=O)[C@@H](NC(=O)[C@H](Cc1ccccc1)NC(=O)[C@@H](NC(=O)CNC(=O)[C@H](CCC(=O)O)NC(=O)C(C)(C)NC(=O)[C@@H](N)Cc1c[nH]cn1)[C@@H](C)O)[C@@H](C)O)C(C)C)C(=O)N[C@@H](C)C(=O)N[C@@H](Cc1c[nH]c2ccccc12)C(=O)N[C@@H](CC(C)C)C(=O)N[C@H](C(=O)N[C@@H](CCCNC(=N)N)C(=O)NCC(=O)N[C@@H](CCCNC(=N)N)C(=O)NCC(=O)O)C(C)C`, the values for the IC50 in assay [1] and in assay [2] were 3.25 nM and 12.8 nM, respectively. Further, the EC50 in assay [3] stood at 0.166 nM.

By IC50 is commonly meant the midpoint of a concentration-inhibition curve. A word on the EC50: it is the concentration that produces a half-maximal response. Read a high EC50 as a need for much substance.

Values taken from ChEMBL document CHEMBL3616405 (J Med Chem, 2015).
